Measured values from patent publication EP2226073A1, “Topical pharmaceutical composition comprising an antiseptic and arginine for wound healing” (EURO-CELTIQUE S.A., priority 2009, dated 2010).

System: Human ciliated epithelium cells
Experimental: Human ciliated epithelium cells were analyzed by an in vitro method which allows for determining ciliary activity or ciliary vibration. The corresponding cells were exposed and incubated with 100 µl test substance at a temperature of 37°C. After an incubation period of 5 min ciliary vibration was measured.
By using this in vitro method, a nutrient solution (Dulbeco) as a standard, a 0.2% chlorohexidine solution (a common antiseptic agent), conventional polyvidone iodine solutions (Betaisodona) of different concentrations (5.0%, 2.5%, and 1.25% PVP-iodine), and a liposomal solution containing 4.5% PVP-iodine were tested.

[H]/N=C(\N/C(=N/[H])NCCCCCCNC(=N)NC(=N)Nc1ccc(Cl)cc1)Nc1ccc(Cl)cc1 [chlorohexidine]
ciliary vibration: decrease of the measured ciliary vibration
